Literature values as cited in patent publication US6562757B1, “Plant-protection treatment of plants and compositions which can be used for this purpose” (Cerexagri S.A., priority 1999, dated 2003).

Conditions: pH 7

| SMILES | amount of soluble aqueous copper (Cu2+(aq)) released [mg/L] |
| --- | --- |
| [Cu+2].[OH-].[OH-] [copper hydroxide] | 1 to 10 |
| [Cl-].[Cu+2].[Cu+2].[OH-].[OH-].[OH-] [copper oxychloride] | 1 to 10 |
